According to the NIST ThermoML archive (doi:10.1016/j.fluid.2014.08.018):

Settings: Liquid, Vibrating tube method

CCC[n+]1ccccc1C.O=S(=O)([N-]S(=O)(=O)C(F)(F)F)C(F)(F)F
Settings | mass density [kg/m3]
283.15 K, 100 kPa | 1478.5
283.15 K, 2500 kPa | 1480.5
283.15 K, 5000 kPa | 1482.1
283.15 K, 7500 kPa | 1483.7
283.15 K, 10000 kPa | 1485.4
283.15 K, 15000 kPa | 1488.6
283.15 K, 20000 kPa | 1491.5
283.15 K, 25000 kPa | 1494.5
283.15 K, 30000 kPa | 1497.3
283.15 K, 35000 kPa | 1500.1
283.15 K, 45000 kPa | 1505.5
283.15 K, 55000 kPa | 1510.5
283.15 K, 65000 kPa | 1515.3
288.15 K, 100 kPa | 1473.7
288.15 K, 2500 kPa | 1475.7
288.15 K, 5000 kPa | 1477.3
288.15 K, 7500 kPa | 1479
288.15 K, 10000 kPa | 1480.6
288.15 K, 15000 kPa | 1483.7
288.15 K, 20000 kPa | 1486.8
288.15 K, 25000 kPa | 1489.9
288.15 K, 30000 kPa | 1492.7
288.15 K, 35000 kPa | 1495.6
288.15 K, 45000 kPa | 1500.9
288.15 K, 55000 kPa | 1506
288.15 K, 65000 kPa | 1510.9
293.15 K, 100 kPa | 1469
293.15 K, 2500 kPa | 1470.9
293.15 K, 5000 kPa | 1472.6
293.15 K, 7500 kPa | 1474.3
293.15 K, 10000 kPa | 1475.9
293.15 K, 15000 kPa | 1479.2
293.15 K, 20000 kPa | 1482.3
293.15 K, 25000 kPa | 1485.3
293.15 K, 30000 kPa | 1488.3
293.15 K, 35000 kPa | 1491.1
293.15 K, 45000 kPa | 1496.6
293.15 K, 55000 kPa | 1501.8
293.15 K, 65000 kPa | 1506.7
298.15 K, 100 kPa | 1464.2
298.15 K, 2500 kPa | 1466.1
298.15 K, 5000 kPa | 1467.8
298.15 K, 7500 kPa | 1469.6
298.15 K, 10000 kPa | 1471.2
298.15 K, 15000 kPa | 1474.5
298.15 K, 20000 kPa | 1477.7
298.15 K, 25000 kPa | 1480.8
298.15 K, 30000 kPa | 1483.8
298.15 K, 35000 kPa | 1486.6
298.15 K, 45000 kPa | 1492.2
298.15 K, 55000 kPa | 1497.4
298.15 K, 65000 kPa | 1502.5
303.15 K, 100 kPa | 1459.5
303.15 K, 2500 kPa | 1461.5
303.15 K, 5000 kPa | 1463.2
303.15 K, 7500 kPa | 1465
303.15 K, 10000 kPa | 1466.6
303.15 K, 15000 kPa | 1470
303.15 K, 20000 kPa | 1473.2
303.15 K, 25000 kPa | 1476.4
303.15 K, 30000 kPa | 1479.5
303.15 K, 35000 kPa | 1482.4
303.15 K, 45000 kPa | 1488
303.15 K, 55000 kPa | 1493.3
303.15 K, 65000 kPa | 1498.4
308.15 K, 100 kPa | 1454.8
308.15 K, 2500 kPa | 1456.8
308.15 K, 5000 kPa | 1458.5
308.15 K, 7500 kPa | 1460.3
308.15 K, 10000 kPa | 1462
308.15 K, 15000 kPa | 1465.4
308.15 K, 20000 kPa | 1468.7
308.15 K, 25000 kPa | 1471.9
308.15 K, 30000 kPa | 1475
308.15 K, 35000 kPa | 1478
308.15 K, 45000 kPa | 1483.7
308.15 K, 55000 kPa | 1489.1
308.15 K, 65000 kPa | 1494.2
313.15 K, 100 kPa | 1450
313.15 K, 2500 kPa | 1452.1
313.15 K, 5000 kPa | 1453.9
313.15 K, 7500 kPa | 1455.8
313.15 K, 10000 kPa | 1457.5
313.15 K, 15000 kPa | 1461
313.15 K, 20000 kPa | 1464.3
313.15 K, 25000 kPa | 1467.5
313.15 K, 30000 kPa | 1470.7
313.15 K, 35000 kPa | 1473.7
313.15 K, 45000 kPa | 1479.5
313.15 K, 55000 kPa | 1485
313.15 K, 65000 kPa | 1490.2
318.15 K, 100 kPa | 1445.4
318.15 K, 2500 kPa | 1447.4
318.15 K, 5000 kPa | 1449.3
318.15 K, 7500 kPa | 1451.1
318.15 K, 10000 kPa | 1452.9
318.15 K, 15000 kPa | 1456.4
318.15 K, 20000 kPa | 1459.9
318.15 K, 25000 kPa | 1463.1
318.15 K, 30000 kPa | 1466.4
318.15 K, 35000 kPa | 1469.4
318.15 K, 45000 kPa | 1475.3
318.15 K, 55000 kPa | 1480.8
318.15 K, 65000 kPa | 1486.1
323.15 K, 100 kPa | 1440.7
323.15 K, 2500 kPa | 1442.8
323.15 K, 5000 kPa | 1444.7
323.15 K, 7500 kPa | 1446.7
323.15 K, 10000 kPa | 1448.5
323.15 K, 15000 kPa | 1452
323.15 K, 20000 kPa | 1455.5
323.15 K, 25000 kPa | 1458.7
323.15 K, 30000 kPa | 1462
323.15 K, 35000 kPa | 1465.2
323.15 K, 45000 kPa | 1471.2
323.15 K, 55000 kPa | 1476.9
323.15 K, 65000 kPa | 1482.1
328.15 K, 100 kPa | 1436.1
328.15 K, 2500 kPa | 1438.3
328.15 K, 5000 kPa | 1440.2
328.15 K, 7500 kPa | 1442.1
328.15 K, 10000 kPa | 1443.9
328.15 K, 15000 kPa | 1447.5
328.15 K, 20000 kPa | 1451
328.15 K, 25000 kPa | 1454.5
328.15 K, 30000 kPa | 1457.8
328.15 K, 35000 kPa | 1460.9
328.15 K, 45000 kPa | 1467.1
328.15 K, 55000 kPa | 1472.7
328.15 K, 65000 kPa | 1478.1
333.15 K, 100 kPa | 1431.4
333.15 K, 2500 kPa | 1433.6
333.15 K, 5000 kPa | 1435.5
333.15 K, 7500 kPa | 1437.5
333.15 K, 10000 kPa | 1439.4
333.15 K, 15000 kPa | 1443.1
333.15 K, 20000 kPa | 1446.6
333.15 K, 25000 kPa | 1450.1
333.15 K, 30000 kPa | 1453.4
333.15 K, 35000 kPa | 1456.7
333.15 K, 45000 kPa | 1462.8
333.15 K, 55000 kPa | 1468.6
333.15 K, 65000 kPa | 1474.2
